US7163919B2, “Anticancer composition” (priority 2002, dated 2007)

Test: MTT cellular viability assay, 293
Format: cell-based
Settings: human, 293 cells (human kidney epithelial cell line, ATCC CRL-1573), Example 7, FIG. 5, normal cell line 293

Question: For CC(=O)O[C@H]1C(=O)[C@@]2(C)[C@H]([C@H](OC(=O)c3ccccc3)[C@]3(O)C[C@H](OC(=O)[C@H](O)[C@@H](NC(=O)c4ccccc4)c4ccccc4)C(C)=C1C3(C)C)[C@]1(OC(C)=O)CO[C@@H]1C[C@@H]2O [TAXOL], which viability at 24 h is on record?
Answer: The viability at 24 h was 20 to 25%.
